These results are taken from ChEMBL document CHEMBL4840313, “Bioisosteric replacements of the indole moiety for the development of a potent and selective PI3Kδ inhibitor: Design, synthesis and biological evaluation” (Eur J Med Chem, 2021).

Assay [1] addresses Phosphatidylinositol 4,5-bisphosphate 3-kinase catalytic subunit alpha isoform (Homo sapiens, UniProt P42336). Put plainly: Inhibition of PI3Kalpha (unknown origin) using PIP2 as substrate in presence of ATP measured after 60 mins by ADP-Glo assay.
The target of assay [2] is Phosphatidylinositol 4,5-bisphosphate 3-kinase catalytic subunit gamma isoform (Homo sapiens, UniProt P48736). Briefly: Inhibition of PI3Kgamma (unknown origin) using PIP2 as substrate in presence of ATP measured after 60 mins by ADP-Glo assay. Background: ADP-Glo turns the ADP formed in a reaction into a luminescent signal.
Phosphatidylinositol 4,5-bisphosphate 3-kinase catalytic subunit gamma isoform, sequence (P48736 whole entry, canonical isoform): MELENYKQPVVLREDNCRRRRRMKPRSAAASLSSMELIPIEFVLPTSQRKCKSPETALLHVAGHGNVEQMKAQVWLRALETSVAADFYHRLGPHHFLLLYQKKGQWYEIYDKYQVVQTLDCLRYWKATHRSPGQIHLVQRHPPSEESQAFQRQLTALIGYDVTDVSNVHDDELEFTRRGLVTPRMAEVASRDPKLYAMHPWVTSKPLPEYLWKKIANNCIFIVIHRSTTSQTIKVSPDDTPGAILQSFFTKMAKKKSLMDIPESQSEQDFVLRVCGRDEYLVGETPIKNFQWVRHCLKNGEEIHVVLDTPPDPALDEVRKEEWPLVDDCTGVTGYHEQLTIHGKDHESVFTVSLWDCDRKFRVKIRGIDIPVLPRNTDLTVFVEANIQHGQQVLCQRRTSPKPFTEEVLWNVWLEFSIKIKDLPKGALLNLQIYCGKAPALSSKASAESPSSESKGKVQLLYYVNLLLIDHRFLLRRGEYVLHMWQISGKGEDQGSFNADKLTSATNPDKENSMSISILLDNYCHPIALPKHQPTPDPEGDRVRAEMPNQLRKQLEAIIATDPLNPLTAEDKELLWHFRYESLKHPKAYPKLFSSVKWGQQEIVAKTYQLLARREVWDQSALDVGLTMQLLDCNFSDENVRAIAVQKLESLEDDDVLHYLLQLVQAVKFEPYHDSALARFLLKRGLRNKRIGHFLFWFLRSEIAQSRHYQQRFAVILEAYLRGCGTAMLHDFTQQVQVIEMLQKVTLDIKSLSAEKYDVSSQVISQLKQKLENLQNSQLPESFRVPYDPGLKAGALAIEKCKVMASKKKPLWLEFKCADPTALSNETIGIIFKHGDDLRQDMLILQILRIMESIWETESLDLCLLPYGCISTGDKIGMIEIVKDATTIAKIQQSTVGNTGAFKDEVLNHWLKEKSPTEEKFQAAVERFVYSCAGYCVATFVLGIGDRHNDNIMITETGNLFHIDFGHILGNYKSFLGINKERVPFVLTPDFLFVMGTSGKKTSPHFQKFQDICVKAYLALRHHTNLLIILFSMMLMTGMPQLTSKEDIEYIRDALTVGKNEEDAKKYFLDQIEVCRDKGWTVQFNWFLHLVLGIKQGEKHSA
For assay [3], the target named is T1, Phosphatidylinositol 4,5-bisphosphate 3-kinase catalytic subunit delta isoform (Homo sapiens, UniProt O00329).
T1 sequence (O00329 whole entry): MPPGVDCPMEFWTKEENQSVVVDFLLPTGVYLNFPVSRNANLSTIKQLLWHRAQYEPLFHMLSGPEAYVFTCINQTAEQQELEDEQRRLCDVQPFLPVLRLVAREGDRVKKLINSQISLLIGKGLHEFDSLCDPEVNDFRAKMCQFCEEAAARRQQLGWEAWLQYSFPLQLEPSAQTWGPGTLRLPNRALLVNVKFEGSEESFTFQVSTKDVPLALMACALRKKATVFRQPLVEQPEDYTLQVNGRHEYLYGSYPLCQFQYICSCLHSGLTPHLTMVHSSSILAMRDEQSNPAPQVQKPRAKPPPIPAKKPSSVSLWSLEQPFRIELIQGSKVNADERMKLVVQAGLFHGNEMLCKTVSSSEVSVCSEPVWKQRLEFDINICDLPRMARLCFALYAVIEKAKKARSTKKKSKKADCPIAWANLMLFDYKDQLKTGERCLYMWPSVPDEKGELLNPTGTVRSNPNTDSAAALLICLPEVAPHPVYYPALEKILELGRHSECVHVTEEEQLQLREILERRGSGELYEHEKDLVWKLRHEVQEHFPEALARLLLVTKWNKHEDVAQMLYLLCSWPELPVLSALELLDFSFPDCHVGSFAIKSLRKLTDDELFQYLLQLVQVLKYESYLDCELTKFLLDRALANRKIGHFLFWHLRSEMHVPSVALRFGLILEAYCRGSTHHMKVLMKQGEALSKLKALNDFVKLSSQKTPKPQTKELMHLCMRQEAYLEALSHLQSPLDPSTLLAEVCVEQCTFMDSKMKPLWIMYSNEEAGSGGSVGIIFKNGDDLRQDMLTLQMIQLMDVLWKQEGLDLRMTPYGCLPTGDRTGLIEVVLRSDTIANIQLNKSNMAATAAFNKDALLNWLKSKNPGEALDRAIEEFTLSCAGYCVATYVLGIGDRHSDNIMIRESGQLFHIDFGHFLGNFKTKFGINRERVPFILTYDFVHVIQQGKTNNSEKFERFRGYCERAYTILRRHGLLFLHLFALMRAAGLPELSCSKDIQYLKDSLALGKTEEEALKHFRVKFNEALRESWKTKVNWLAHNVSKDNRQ
Briefly: Inhibition of PI3Kdelta (unknown origin) using PIP2 as substrate in presence of ATP measured after 60 mins by ADP-Glo assay.

Assay [4] has as its target Phosphatidylinositol 4,5-bisphosphate 3-kinase catalytic subunit beta isoform (Homo sapiens, UniProt P42338). Put plainly: Inhibition of PI3Kbeta (unknown origin) using PIP2 as substrate in presence of ATP measured after 60 mins by ADP-Glo assay.
A short description of assay [5]: Induction of cell cycle arrest in human MOLM16 cells assessed as accumulation at G2 phase at 2 uM incubated for 24 hrs by propidium iodide /RNase staining based flow cytometry(Rvb =14.7 %). In kind it is functional, MOLM-16. In general terms: In flow cytometry, cells or beads pass a laser one at a time.
Assay [6] is described as follows: Induction of cell cycle arrest in human MOLM16 cells assessed as accumulation at S phase at 2 uM incubated for 24 hrs by propidium iodide /RNase staining based flow cytometry(Rvb =31.8 %). In kind it is functional, MOLM-16.
Assay [7] is described as follows: Induction of apoptosis in human MOLM16 cells assessed as late apoptotic cells at 2 uM incubated for 48 hrs by Annexin V and propidium iodide Staining based assay (reference value: 6.77 %). In kind it is functional, MOLM-16.
Assay [8] in a line: Induction of cell cycle arrest in human MOLM16 cells assessed as accumulation at G2 phase at 1 uM incubated for 24 hrs by propidium iodide /RNase staining based flow cytometry(Rvb =14.7 %). The assay is classed as functional, MOLM-16.
Assay [9] is described as follows: Induction of cell cycle arrest in human MOLM16 cells assessed as accumulation at subG1 phase at 5 uM incubated for 24 hrs by propidium iodide /RNase staining based flow cytometry(Rvb =4.02 %). In kind it is functional, MOLM-16.
Assay [10] can be described thus: Induction of apoptosis in human MOLM16 cells assessed as necrotic cells at 1 uM incubated for 48 hrs by Annexin V and propidium iodide Staining based assay (reference value: 0.44 %). The assay is classed as functional, MOLM-16.
A short description of assay [11]: Induction of apoptosis in human MOLM16 cells assessed as viable cells at 1 uM incubated for 48 hrs by Annexin V and propidium iodide Staining based assay (reference value: 76.3 %). To be noted: read-out: Activity. In kind it is functional, MOLM-16.
The nature of assay [12]: Induction of apoptosis in human MOLM16 cells assessed as necrotic cells at 2 uM incubated for 48 hrs by Annexin V and propidium iodide Staining based assay (reference value: 0.44 %). In kind it is functional, MOLM-16.
Assay [13] in a line: Induction of apoptosis in human MOLM16 cells assessed as late apoptotic cells at 5 uM incubated for 48 hrs by Annexin V and propidium iodide Staining based assay (reference value: 6.77 %). In kind it is functional, MOLM-16.
A short description of assay [14]: Induction of apoptosis in human MOLM16 cells assessed as viable cells at 5 uM incubated for 48 hrs by Annexin V and propidium iodide Staining based assay (reference value: 76.3 %). To be noted: read-out: Activity. The assay is classed as functional, MOLM-16.
Assay [15] is described as follows: Induction of apoptosis in human MOLM16 cells assessed as necrotic cells at 5 uM incubated for 48 hrs by Annexin V and propidium iodide Staining based assay (reference value: 0.44 %). The assay is classed as functional, MOLM-16.
A short description of assay [16]: Induction of cell cycle arrest in human MOLM16 cells assessed as accumulation at S phase at 1 uM incubated for 24 hrs by propidium iodide /RNase staining based flow cytometry(Rvb =31.8 %). The assay is classed as functional, MOLM-16.
Assay [17] can be described thus: Induction of apoptosis in human MOLM16 cells assessed as early apoptotic cells at 5 uM incubated for 48 hrs by Annexin V and propidium iodide Staining based assay (reference value: 16.4 %). In kind it is functional, MOLM-16.
Assay [18] in a line: Induction of cell cycle arrest in human MOLM16 cells assessed as accumulation at G1 phase at 1 uM incubated for 24 hrs by propidium iodide /RNase staining based flow cytometry(Rvb =46.8 %). The assay is classed as functional, MOLM-16.
Assay [19] is described as follows: Induction of apoptosis in human MOLM16 cells assessed as early apoptotic cells at 1 uM incubated for 48 hrs by Annexin V and propidium iodide Staining based assay (reference value: 16.4 %). In kind it is functional, MOLM-16.
Assay [20] can be described thus: Induction of cell cycle arrest in human MOLM16 cells assessed as accumulation at subG1 phase at 2 uM incubated for 24 hrs by propidium iodide /RNase staining based flow cytometry(Rvb =4.02 %). The assay is classed as functional, MOLM-16.
Assay [21] is described as follows: Induction of cell cycle arrest in human MOLM16 cells assessed as accumulation at G2 phase at 5 uM incubated for 24 hrs by propidium iodide /RNase staining based flow cytometry(Rvb =14.7 %). The assay is classed as functional, MOLM-16.
Assay [22] can be described thus: Induction of apoptosis in human MOLM16 cells assessed as viable cells at 2 uM incubated for 48 hrs by Annexin V and propidium iodide Staining based assay (reference value: 76.3 %). In kind it is functional, MOLM-16. To be noted: read-out: Activity.
Assay [23] is described as follows: Induction of cell cycle arrest in human MOLM16 cells assessed as accumulation at G1 phase at 5 uM incubated for 24 hrs by propidium iodide /RNase staining based flow cytometry(Rvb =46.8 %). In kind it is functional, MOLM-16.
A short description of assay [24]: Induction of cell cycle arrest in human MOLM16 cells assessed as accumulation at G1 phase at 2 uM incubated for 24 hrs by propidium iodide /RNase staining based flow cytometry(Rvb =46.8 %). In kind it is functional, MOLM-16.
A short description of assay [25]: Induction of apoptosis in human MOLM16 cells assessed as early apoptotic cells at 2 uM incubated for 48 hrs by Annexin V and propidium iodide Staining based assay (reference value: 16.4 %). In kind it is functional, MOLM-16.
A short description of assay [26]: Induction of apoptosis in human MOLM16 cells assessed as late apoptotic cells at 1 uM incubated for 48 hrs by Annexin V and propidium iodide Staining based assay (reference value: 6.77 %). The assay is classed as functional, MOLM-16.
The nature of assay [27]: Induction of cell cycle arrest in human MOLM16 cells assessed as accumulation at subG1 phase at 1 uM incubated for 24 hrs by propidium iodide /RNase staining based flow cytometry(Rvb =4.02 %). The assay is classed as functional, MOLM-16.
The nature of assay [28]: Induction of cell cycle arrest in human MOLM16 cells assessed as accumulation at S phase at 5 uM incubated for 24 hrs by propidium iodide /RNase staining based flow cytometry(Rvb =31.8 %). In kind it is functional, MOLM-16.

One may read the IC50 as the concentration needed to halve the response being measured.

Phosphatidylinositol 4,5-bisphosphate 3-kinase catalytic subunit alpha isoform, sequence (P42336 whole entry, canonical isoform): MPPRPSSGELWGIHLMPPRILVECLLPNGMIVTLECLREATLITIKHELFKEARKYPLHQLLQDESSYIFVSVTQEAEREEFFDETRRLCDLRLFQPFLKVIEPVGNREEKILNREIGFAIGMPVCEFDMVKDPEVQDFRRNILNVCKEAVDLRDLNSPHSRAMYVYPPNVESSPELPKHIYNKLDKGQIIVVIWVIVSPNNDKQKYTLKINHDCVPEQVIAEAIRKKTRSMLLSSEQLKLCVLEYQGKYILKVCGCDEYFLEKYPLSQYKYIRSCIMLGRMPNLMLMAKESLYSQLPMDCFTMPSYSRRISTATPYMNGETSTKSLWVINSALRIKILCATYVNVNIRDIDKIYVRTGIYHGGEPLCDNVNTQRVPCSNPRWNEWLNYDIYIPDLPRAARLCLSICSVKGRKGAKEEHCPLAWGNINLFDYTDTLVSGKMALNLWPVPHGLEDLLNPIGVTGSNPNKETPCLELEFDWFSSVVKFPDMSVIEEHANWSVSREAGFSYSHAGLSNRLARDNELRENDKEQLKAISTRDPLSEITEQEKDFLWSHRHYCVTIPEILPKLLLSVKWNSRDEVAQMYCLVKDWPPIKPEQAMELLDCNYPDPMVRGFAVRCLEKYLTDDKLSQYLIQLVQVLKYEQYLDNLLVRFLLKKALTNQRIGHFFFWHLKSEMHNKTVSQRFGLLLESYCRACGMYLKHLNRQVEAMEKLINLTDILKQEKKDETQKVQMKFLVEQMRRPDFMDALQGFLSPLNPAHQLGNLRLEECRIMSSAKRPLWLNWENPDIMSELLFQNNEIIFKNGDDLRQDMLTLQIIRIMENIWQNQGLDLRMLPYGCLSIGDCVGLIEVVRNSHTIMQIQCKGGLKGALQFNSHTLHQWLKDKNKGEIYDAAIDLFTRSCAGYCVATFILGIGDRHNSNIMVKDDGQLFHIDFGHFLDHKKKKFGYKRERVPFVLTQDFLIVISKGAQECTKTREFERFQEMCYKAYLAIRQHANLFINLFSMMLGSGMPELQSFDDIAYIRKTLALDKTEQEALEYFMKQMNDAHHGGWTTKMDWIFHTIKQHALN
Phosphatidylinositol 4,5-bisphosphate 3-kinase catalytic subunit beta isoform, sequence (P42338 whole entry, canonical isoform): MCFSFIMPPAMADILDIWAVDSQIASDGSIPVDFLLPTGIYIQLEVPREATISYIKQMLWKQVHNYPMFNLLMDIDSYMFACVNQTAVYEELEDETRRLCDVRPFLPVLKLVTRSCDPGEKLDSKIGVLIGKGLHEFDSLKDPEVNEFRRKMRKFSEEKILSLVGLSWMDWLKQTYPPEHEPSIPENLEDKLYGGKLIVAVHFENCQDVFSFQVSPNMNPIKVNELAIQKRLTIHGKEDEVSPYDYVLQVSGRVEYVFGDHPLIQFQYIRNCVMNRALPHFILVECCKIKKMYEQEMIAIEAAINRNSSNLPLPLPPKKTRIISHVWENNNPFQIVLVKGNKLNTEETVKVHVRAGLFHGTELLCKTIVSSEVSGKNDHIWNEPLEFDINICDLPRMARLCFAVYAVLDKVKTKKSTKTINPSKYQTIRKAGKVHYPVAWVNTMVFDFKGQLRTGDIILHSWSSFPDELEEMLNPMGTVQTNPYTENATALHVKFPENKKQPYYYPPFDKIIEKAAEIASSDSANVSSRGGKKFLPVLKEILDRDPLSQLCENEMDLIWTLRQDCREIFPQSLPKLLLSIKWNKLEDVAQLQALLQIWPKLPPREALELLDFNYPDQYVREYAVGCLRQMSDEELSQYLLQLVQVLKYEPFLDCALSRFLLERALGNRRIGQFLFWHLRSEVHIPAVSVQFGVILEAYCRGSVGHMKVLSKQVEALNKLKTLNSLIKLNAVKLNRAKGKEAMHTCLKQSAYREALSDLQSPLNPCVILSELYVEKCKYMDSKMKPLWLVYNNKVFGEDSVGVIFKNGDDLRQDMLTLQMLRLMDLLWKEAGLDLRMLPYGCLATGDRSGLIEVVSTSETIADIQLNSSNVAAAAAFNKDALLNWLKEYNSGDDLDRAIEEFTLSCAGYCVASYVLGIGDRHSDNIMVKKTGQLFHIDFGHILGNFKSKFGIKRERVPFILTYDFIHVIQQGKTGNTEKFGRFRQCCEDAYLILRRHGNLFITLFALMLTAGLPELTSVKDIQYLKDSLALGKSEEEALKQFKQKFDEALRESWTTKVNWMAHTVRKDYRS

Regarding `O=S(=O)(Nc1cc(-c2cnc3[nH]ccc3n2)cnc1Cl)c1ccccc1`, the IC50 in assay [1] worked out at 59 nM; in assay [2], 57 nM; in assay [3], 49 nM; in assay [4] it was 80 nM.
With `CC[C@H](Nc1ncnc2[nH]cnc12)c1nc2cccc(F)c2c(=O)n1-c1ccccc1` [IDELALISIB], the Activity in [5] is 12.4%; in [6], 32.9%; in assay [7], 10.1%; in assay [8], 13.9%; in [9], 2.6%; in assay [10], 1.14%. The Activity was found to be 0.5% in assay [12]; 9.19% in [13]; 1.49% in [15]; 31.7% in assay [16]; 14.8% in [17]; 47.9% in assay [18]. For the same molecule, the Activity in assay [19] was 13.9%; in [20], 5.71%; in assay [21] it was 13.6%; in [23] it was 49.6%; in [24], 48.4%; in assay [25] it was 18.2%. The Activity was 7.95% in assay [26], 3.44% in assay [27] and 32.8% in assay [28]. Further, in assay [11], the viability at 1 µM came out at 77%. Further, the viability at 5 µM in assay [14] worked out at 74.6%. Also, the viability at 2 µM in [22] was 73.2%.
Regarding `O=S(=O)(Nc1cc(-c2ccc3occc3c2)cnc1Cl)c1ccccc1`, the IC50 in assay [3] came to 17 nM.
Regarding `O=S(=O)(Nc1cc(-c2ccc3scnc3c2)cnc1Cl)c1ccccc1`, the IC50 in assay [3] stood at 604 nM.
On the same count and under the same terms, under `O=S(=O)(Nc1cc(-c2ccc3sccc3c2)cnc1Cl)c1ccccc1` stands 859 nM.
The same measure, in the same setting: under `O=S(=O)(Nc1cc(-c2ccc3[nH]nnc3c2)cnc1Cl)c1ccccc1` stands 15 nM; under `O=S(=O)(Nc1cc(-c2ccc3c(c2)CCN3)cnc1Cl)c1ccccc1`, 492 nM; under `O=S(=O)(Nc1cc(-c2ccc3[nH]ncc3n2)cnc1Cl)c1ccccc1`, 294 nM.
Same read-out and setting: under `O=S(=O)(Nc1cc(-c2cnc3scnc3c2)cnc1Cl)c1ccccc1` stands 204 nM; under `O=S(=O)(Nc1cc(-c2ccc3[nH]ccc3c2)cnc1Cl)c1ccccc1`, 334 nM.
For `O=S(=O)(Nc1cc(-c2cnc3c(c2)CCN3)cnc1Cl)c1ccccc1`, in [3], the IC50 was 123 nM.
Consider `O=S(=O)(Nc1cc(-c2cc3cn[nH]c3cn2)cnc1Cl)c1ccccc1`, for which the IC50 in [3] turned out to be 527 nM.
`O=S(=O)(Nc1cc(-c2cnc3[nH]cnc3c2)cnc1Cl)c1ccccc1`: the 50% inhibitory concentration (IC50) turned out to be 28 nM in assay [1], 21 nM in [2], 16 nM in assay [3] and 26 nM in [4].
On to `O=S(=O)(Nc1cc(-c2ccc3[nH]cnc3c2)cnc1Cl)c1ccccc1`, for which the IC50 in [3] stood at 28 nM.
With `O=S(=O)(Nc1cc(-c2ccc3ocnc3c2)cnc1Cl)c1ccccc1`, in assay [3], the half-inhibitory concentration (IC50) is 37 nM.
For the molecule `O=S(=O)(Nc1cc(-c2ccc3[nH]ncc3c2)cnc1Cl)c1ccccc1`, the IC50 in assay [3] came to 36 nM.
Same read-out and setting: under `O=S(=O)(Nc1cc(-c2ccc3[nH]ccc3n2)cnc1Cl)c1ccccc1` stands 3060 nM.
Same read-out and setting: under `O=S(=O)(Nc1cc(-c2cc3cc[nH]c3cn2)cnc1Cl)c1ccccc1` stands 1310 nM.
On to `O=S(=O)(Nc1cc(-c2cnc3occc3c2)cnc1Cl)c1ccccc1`, for which, in assay [3], the concentration for half-maximal inhibition (IC50) is 209 nM.
